Target: T1, panel of 442 kinases (Homo sapiens, UniProt Q56UN5)
T1 construct: purchased KINOMEscan
T1 sequence (Q56UN5 1-1328): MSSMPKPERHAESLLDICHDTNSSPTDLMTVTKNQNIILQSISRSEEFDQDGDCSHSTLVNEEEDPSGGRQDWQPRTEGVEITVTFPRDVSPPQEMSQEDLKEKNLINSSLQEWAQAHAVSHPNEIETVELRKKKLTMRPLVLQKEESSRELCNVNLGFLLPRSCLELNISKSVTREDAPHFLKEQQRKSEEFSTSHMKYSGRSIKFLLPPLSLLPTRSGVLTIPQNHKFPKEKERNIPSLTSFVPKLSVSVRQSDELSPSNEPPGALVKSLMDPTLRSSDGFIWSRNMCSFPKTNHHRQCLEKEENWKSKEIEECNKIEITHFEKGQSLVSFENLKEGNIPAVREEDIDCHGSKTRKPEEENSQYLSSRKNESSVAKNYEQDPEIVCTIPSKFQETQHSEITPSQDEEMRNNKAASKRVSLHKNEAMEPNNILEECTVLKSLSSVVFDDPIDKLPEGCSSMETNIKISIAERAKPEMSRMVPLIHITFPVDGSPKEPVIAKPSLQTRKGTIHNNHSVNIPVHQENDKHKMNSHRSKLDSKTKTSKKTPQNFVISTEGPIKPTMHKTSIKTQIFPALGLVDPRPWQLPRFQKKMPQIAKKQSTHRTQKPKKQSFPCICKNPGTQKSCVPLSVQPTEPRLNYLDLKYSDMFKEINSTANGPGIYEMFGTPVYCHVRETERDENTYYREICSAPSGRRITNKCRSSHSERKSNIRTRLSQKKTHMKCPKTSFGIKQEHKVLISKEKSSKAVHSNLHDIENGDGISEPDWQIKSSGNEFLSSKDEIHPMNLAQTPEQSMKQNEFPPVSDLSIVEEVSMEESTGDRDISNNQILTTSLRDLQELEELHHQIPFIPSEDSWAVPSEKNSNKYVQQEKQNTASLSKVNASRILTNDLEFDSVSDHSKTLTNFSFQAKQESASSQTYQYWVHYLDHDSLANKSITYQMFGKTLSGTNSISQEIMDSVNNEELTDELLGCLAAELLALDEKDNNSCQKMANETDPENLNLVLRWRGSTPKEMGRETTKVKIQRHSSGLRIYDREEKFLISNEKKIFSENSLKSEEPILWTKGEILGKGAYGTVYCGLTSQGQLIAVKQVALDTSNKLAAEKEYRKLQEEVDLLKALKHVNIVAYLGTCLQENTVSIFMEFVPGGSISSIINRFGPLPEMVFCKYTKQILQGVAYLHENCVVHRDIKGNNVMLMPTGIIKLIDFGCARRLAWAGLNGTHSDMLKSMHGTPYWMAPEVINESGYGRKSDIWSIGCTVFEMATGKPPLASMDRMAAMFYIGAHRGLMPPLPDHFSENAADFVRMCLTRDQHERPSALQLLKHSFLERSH
Type: binding
Details: kinase YSK4; compound concentration 10 µM
Source text: We assessed the selectivity of members of this scaffold using the KINOMEscan methodology across a near comprehensive panel of 442 kinases [[18,27]].

| Compound | % Ctrl, YSK4 |
| --- | --- |
| COc1cc(C(=O)N2CCC(N3CCN(C)CC3)CC2)ccc1Nc1ncc2c(n1)N(C1CCCC1)c1ccccc1C(=O)N2C [Compound 25, 11-cyclopentyl-2-((2-methoxy-4-(4-(4-methylpiperazin-1-yl)piperidine-1-carbonyl)phenyl)amino)-5-methyl-5H-benzo[e]pyrimido[5,4-b][1,4]diazepin-6(11H)-one] | 100 % Ctrl |
| COc1cc(C(=O)N2CCC(N3CCN(C)CC3)CC2)ccc1Nc1ncc2c(n1)N1CCc3cccc(c31)C(=O)N2C [Compound 24] | 24 % Ctrl |
| COc1cc(C(=O)N2CCC(N3CCN(C)CC3)CC2)ccc1Nc1ncc2c(n1)N(C)c1ccccc1C(=O)N2C [15 (LRRK2-IN-1)] | 99 % Ctrl |
| CCOc1cc(C(=O)N2CCC(N3CCN(C)CC3)CC2)ccc1Nc1ncc2c(n1)N(C1CCCC1)c1ccccc1C(=O)N2C [Compound 26] | 100 % Ctrl |

— paper PMC3914206
